Data set [1] deals with cowpox virus. Conditions: mouse, in vivo; cited from earlier work.
For data set [2], the system named is cowpox virus. The settings on record: mouse, in vivo; cited from earlier work. The source holds these as a separate data set.
The test system of a further data set is CV-1 cells. The settings on record: African green monkey.
Another data set concerns RK44.20 cells. The settings on record: rabbit.

As to `Nc1ccn(C[C@@H](CO)OCP(=O)(O)O)c(=O)n1` [Cidofovir], the effect on mortality result in the data set on cowpox virus [1] is given as “reduce mortality”. The effect on death result in the data set with cowpox virus [2] was “only delayed but did not prevent death”.
`Cc1cn([C@H]2C[C@H](N=[N+]=[N-])[C@@H](CO)O2)c(=O)[nH]c1=O` [AZT, 3′-azido-2′,3′-dideoxythymidine]: the “AZT concentration with toxic effect on cells” value with CV-1 cells and with RK44.20 cells was greater than 1.5 mg/mL each time.

Values taken from US8753648B2 (priority 2002, dated 2014).
